Entries after “also recorded” stand apart in the source; their conditions may differ.
How the values were obtained:
amyloid-β(1-40) E22Q = target: T1, amyloid-β(1-40) E22Q (Homo sapiens, UniProt P05067, E693Q); experiment: ELISA binding of tPA to immobilized Aβ after pre-incubation with compounds; details: for % tPA binding (after compound incubation), Aβ: 1 μg/ml coated Aβ first exposed to 500 μg/ml compound, then 80 nM tPA, control = 100; for influence on tPA binding to immobilized Aβ: Aβ first overlayed with compound (concentration series), then tPA
T1 construct: For similar ELISA's with DOVA and Aβ(1-40) E22Q, 1 μg/ml DOVA or Aβ was coated; purchased Peptide facility, Dutch Cancer Institute, Amsterdam; host or cells: synthetic peptide
T1 sequence (P05067 672-711 E693Q): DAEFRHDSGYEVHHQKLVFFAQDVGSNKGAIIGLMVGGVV
Method: (§1) Compounds were now diluted 10× in PBS/0.1% Tween20 (500 μg/ml compound). […] With this approach a further selection of the compounds was achieved. Now, compounds that at least interact with HB-AGE are selected. With the selection, similar binding assays are performed with misfolded OVA and Aβ. Finally, concentration series of the selected compounds are used in the binding studies.

ovalbumin = target: T2, ovalbumin (Gallus gallus, UniProt P01012); experiment: Transmission electron microscopy of ovalbumin heated in the presence of small compounds; set-up: species or system chicken; details: 1 mg/ml ovalbumin heated with 1 mg/ml compound
T2 construct: purchased Sigma A5503
T2 sequence (P01012 1-386): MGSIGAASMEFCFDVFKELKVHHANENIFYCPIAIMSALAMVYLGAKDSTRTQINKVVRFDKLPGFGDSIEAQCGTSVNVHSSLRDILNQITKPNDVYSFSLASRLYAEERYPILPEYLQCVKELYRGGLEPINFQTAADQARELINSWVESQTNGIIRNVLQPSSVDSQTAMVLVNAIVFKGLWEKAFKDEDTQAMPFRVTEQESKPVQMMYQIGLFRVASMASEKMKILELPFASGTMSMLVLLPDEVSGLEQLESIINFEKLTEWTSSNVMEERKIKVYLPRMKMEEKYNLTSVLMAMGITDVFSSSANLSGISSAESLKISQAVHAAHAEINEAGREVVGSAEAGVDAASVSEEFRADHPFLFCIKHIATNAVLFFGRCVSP
In short: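 Ovalbumin at 1 mg/ml was applied to carbon-coated Formvar copper grids, washed with PBS and water, then stained 2 min in 2% methylcellulose with 0.4% uranyl acetate, pH 4. Grids were dried and imaged by TEM at 80 kV.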

Hb-AGE [1] = target: T3, Hb-AGE (Homo sapiens, UniProt P68871+P69905); experiment: Binding of Hb-AGE from solution to immobilized small compounds
T3 construct: purchased Sigma-Aldrich H7379
T3 sequence (P69905 2-142 limits assumed): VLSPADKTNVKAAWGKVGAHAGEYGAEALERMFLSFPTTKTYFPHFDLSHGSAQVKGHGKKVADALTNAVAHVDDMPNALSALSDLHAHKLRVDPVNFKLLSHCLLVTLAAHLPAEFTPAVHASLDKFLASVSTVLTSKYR
T3 sequence (P68871 2-147 limits assumed): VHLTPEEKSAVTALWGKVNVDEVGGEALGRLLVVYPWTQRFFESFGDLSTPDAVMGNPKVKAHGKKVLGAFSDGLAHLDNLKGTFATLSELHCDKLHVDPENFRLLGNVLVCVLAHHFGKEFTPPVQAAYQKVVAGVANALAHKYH
Method: To test the ability of the twelve selected compounds (see Table 7) to bind to misfolded proteins, […] Greiner Microlon high binding plates, Nunc amino Immobilizer plates and Nunc Maxisorp plates. Compounds were coated in 100 mM NaHCO3 pH 9.6, 50 μl/well, 1 h at room temperature with agitation. As a control, wells were coated with buffer only. After blocking of the plates, wells were overlayed with solutions of 0.1/1/10 μg/ml Hb-AGE or 10/100 μg/ml Aβ, in binding buffer (PBS/0.1% Tween20). After washing, binding of Hb-AGE was assessed by overlaying wells with 1 μg/ml hybridoma antibody 4B5, which binds to glycations(^2), followed by RAMPO. Binding of Aβ was visualized using 500× diluted anti-Aβ antibodies (mouse antibody beta-amyloid Clone 6F/3D #M0872, lot 00003503, DAKOCytomation; β-amyloid (H-43) SC-9129, 200 μg/ml rabbit polyclonal IgG, Santa Cruz Biotechnology) and RAMPO/SWARPO in a 1:1 ratio. Finally, wells were overlayed with OPD/H2O2 solution, and H2SO4, before absorbance readings at 490 nm.

heat-denatured ovalbumin = target: T4, heat-denatured ovalbumin (Gallus gallus, UniProt P01012); experiment: Thioflavin T fluorescence of ovalbumin and small compounds; set-up: species or system chicken
T4 construct: purchased Sigma A5503
T4 sequence (P01012 1-386): T2 sequence (P01012 1-386)
In short: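 Heat-denatured ovalbumin at 1 mg/ml in PBS, alone, with 1% v/v DMSO or with 1 mg/ml compound (also heat-denatured after compound addition), mixed 1:9 with 25 μM ThT in 50 mM glycine pH 9.0. Fluorescence read in duplicate at 435 nm excitation, 485 nm emission.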

Hb-AGE [2] = target: T3, Hb-AGE; experiment: ELISA binding of tPA to immobilized Hb-AGE after pre-incubation with compounds; details: then tPA; for influence on tPA binding to immobilized Hb-AGE: Hb-AGE first overlayed with compound (concentration series); for % tPA binding (after compound incubation), HbAGE: immobilized Hb-AGE first exposed to 500 μg/ml compound, control = 100
Method: Compounds were now diluted 10× in PBS/0.1% Tween20 (500 μg/ml compound). […] With the selection, similar binding assays are performed with misfolded OVA and Aβ. Finally, concentration series of the selected compounds are used in the binding studies.

[3] = target: T5, heat-denatured misfolded ovalbumin (DOVA) (Gallus gallus, UniProt P01012); experiment: ELISA binding of tPA to immobilized misfolded ovalbumin after pre-incubation with compounds; set-up: species or system chicken; details: for activity at 500 µg/mL: read-out: % tPA binding (after compound incubation), DOVA; for influence on tPA binding to immobilized misfolded OVA: misfolded OVA first overlayed with compound (concentration series), then tPA
T5 construct: purchased Sigma A5503
T5 sequence (P01012 2-386 limits assumed): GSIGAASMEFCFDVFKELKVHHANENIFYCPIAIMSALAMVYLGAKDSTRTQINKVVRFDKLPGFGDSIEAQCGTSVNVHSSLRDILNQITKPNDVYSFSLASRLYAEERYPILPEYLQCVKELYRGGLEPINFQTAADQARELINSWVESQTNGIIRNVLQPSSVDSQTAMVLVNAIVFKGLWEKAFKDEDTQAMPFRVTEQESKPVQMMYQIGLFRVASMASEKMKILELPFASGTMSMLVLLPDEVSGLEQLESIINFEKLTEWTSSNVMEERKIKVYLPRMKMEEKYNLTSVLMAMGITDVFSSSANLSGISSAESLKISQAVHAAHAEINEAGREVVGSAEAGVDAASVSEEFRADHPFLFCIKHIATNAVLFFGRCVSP
Method: as §1

COc1cc2c(cc1OC)-c1c(O)c(OC)cc3c1[C@H](C2)N(C)CC3 [compound 201, Thaliporphine, thalicmidine]
% tPA binding (after compound incubation), Aβ (amyloid-β(1-40) E22Q): 400% | appearance of ovalbumin heated in the presence of compound on TEM image (ovalbumin): Spherical aggregates with background of smaller | Signal (a.u.) (Hb-AGE [1]; Nunc Maxisorp, coat 100 μg/ml, Hb-AGE 0.1 μg/ml): 0.55 a.u. | influence on Thioflavin T fluorescence with misfolded OVA (heat-denatured ovalbumin; 1 mg/ml compound, 1 mg/ml OVA): Inhibition of Thioflavin T fluorescence with misfolded OVA | influence on tPA binding to immobilized Hb-AGE (Hb-AGE [2]): Stimulated tPA binding to immobilized misfolded protein (Hb- | % tPA binding (after compound incubation), HbAGE (Hb-AGE [2]): 110% | activity at 500 µg/mL [3]: 400%

COc1cc2c(cc1O)C[C@H]1c3c(cc(OC)c(O)c3-2)CCN1C [compound 202, Isoboldine]
% tPA binding (after compound incubation), Aβ (amyloid-β(1-40) E22Q): 250% | influence on tPA binding to immobilized Aβ (amyloid-β(1-40) E22Q): Stimulated tPA binding to immobilized misfolded protein (Aβ, | appearance of ovalbumin heated in the presence of compound on TEM image (ovalbumin): Larger and more dense aggregates than control. Small | Signal (a.u.) (Hb-AGE [1]; Nunc Maxisorp, coat 100 μg/ml, Hb-AGE 1 μg/ml): 0.46 a.u. | Signal (a.u.) (Hb-AGE [1]; Nunc amino Immobilizer, coat 1 μg/ml, Hb-AGE 10 μg/ml): 0.20 a.u. | influence on Thioflavin T fluorescence with misfolded OVA (heat-denatured ovalbumin; 1 mg/ml compound, 1 mg/ml OVA): Inhibition on Thioflavin T fluorescence with misfolded OVA | influence on tPA binding to immobilized Hb-AGE (Hb-AGE [2]): Stimulated tPA binding to immobilized misfolded protein (Aβ, | % tPA binding (after compound incubation), HbAGE (Hb-AGE [2]): 250% | influence on tPA binding to immobilized misfolded OVA [3]: Stimulated tPA binding to immobilized misfolded protein (Aβ, | activity at 500 µg/mL [3]: 420%

O=c1oc2c(O)c(O)cc3c(=O)oc4c(O)c(O)cc1c4c23 [compound 117, Ellagic acid hydrate]
influence on tPA binding to immobilized Aβ (amyloid-β(1-40) E22Q): Stimulated tPA binding to immobilized misfolded protein (Hb- | appearance of ovalbumin heated in the presence of compound on TEM image (ovalbumin; hydrate): less OVA aggregates after heating in the presence of the; also recorded: Clusters of needle-like structures. No aggregates | Signal (a.u.) (Hb-AGE [1]; Greiner Microlon, coat 100 μg/ml, Hb-AGE 10 μg/ml): 0.13 a.u. | Signal (a.u.) (Hb-AGE [1]; Nunc Maxisorp, coat 100 μg/ml, Hb-AGE 10 μg/ml): 0.15 a.u. | influence on Thioflavin T fluorescence with misfolded OVA (heat-denatured ovalbumin; 1 mg/ml compound, 1 mg/ml OVA): Inhibition on Thioflavin T fluorescence with misfolded OVA | reduction in Thioflavin T fluorescence enhancement, compound and OVA heated together (heat-denatured ovalbumin; 1 mg/ml compound, 1 mg/ml OVA, PBS/1% DMSO): 90% | inhibition at 1000 µg/mL (heat-denatured ovalbumin; 1 mg/ml compound, 1 mg/ml OVA, PBS/1% DMSO, read-out: inhibition of Thioflavin T fluorescence, compound mixed with pre-formed misfolded OVA): ~50% | formation of Thioflavin T binding sites in heated OVA (heat-denatured ovalbumin; OVA and compound heated together): Inhibition of formation of Thioflavin T binding sites in heated | influence on tPA binding to immobilized Hb-AGE (Hb-AGE [2]): Stimulated tPA binding to immobilized misfolded protein (Hb- | influence on tPA binding to immobilized misfolded OVA [3]: Stimulated tPA binding to immobilized misfolded protein (Hb-
